Data on 24 compounds can be found in US9284350B2, “IAP BIR domain binding compounds” (Pharmascience Inc., priority 2010, dated 2016).

The target in assay [1] is T1, cIAP2 (Homo sapiens, UniProt Q13489).
T1 construct: GST (N); made in house; host or cells: E. coli DH5α
As to the kind of experiment: Fluorescence polarization-based competition assay, cIAP2. It counts as binding. Particulars: FP assay, ki derived from IC50. The method, boiled down: (§1)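 Competition of FITC-labelled probe (2 nM) binding to the BIR domain, protein set at 80% of maximal FP signal; 10-point compound dilutions in 50 mM HEPES pH 7.5, γ-globulin, 2 mM DTT, 1% DMSO, 1 h at room temperature in the dark. IC50 from sigmoidal fit; Ki derived from IC50.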

For assay [2], the target named is T2, c-IAP1 (Homo sapiens, UniProt Q13490).
T2 construct: GST (N); made in house; host or cells: E. coli DH5α
As to the kind of experiment: Fluorescence polarization-based competition assay, c-IAP1. It counts as binding. To be noted: FP assay, ki derived from IC50. The method, boiled down: as §1

Assay [3] deals with Colorectal carcinoma HCT116 cells. As to the kind of experiment: Cell death assay (MTT) in combination with HGS ETR1. It counts as cell-based. To be noted: with HGS ETR1 30 ng/ml, 72 hours, read-out: HCT116+ mapatubimap EC50. In outline: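 HCT116 cells (2000/well, McCoy's 5a, 10% FBS) were treated 24 h after plating with compound plus the agonistic TRAIL receptor antibody mapatumumab (ETR1, 30 ng/ml) for 72 hours. Viability was read by MTT. EC50 was the concentration giving 50% survival relative to untreated controls.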

In assay [4] the target is T3, XIAP (Homo sapiens, UniProt P98170).
T3 construct: fused on or other part: GST tag at the N-terminus (pGEX4T vectors)
As to the kind of experiment: Fluorescence polarization-based competition assay, XIAP. Particulars: FP assay, ki derived from IC50. Format: binding. In outline: as §1

T1 sequence (Q13489 236-349): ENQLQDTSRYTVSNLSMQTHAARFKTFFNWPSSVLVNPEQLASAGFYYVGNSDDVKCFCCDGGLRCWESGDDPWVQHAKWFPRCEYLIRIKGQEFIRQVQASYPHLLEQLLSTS
T2 sequence (Q13490 251-363): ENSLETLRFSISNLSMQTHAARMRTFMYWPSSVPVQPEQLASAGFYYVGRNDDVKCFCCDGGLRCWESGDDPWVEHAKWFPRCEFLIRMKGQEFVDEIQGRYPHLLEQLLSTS
T3 sequence (P98170 246-497 limits assumed): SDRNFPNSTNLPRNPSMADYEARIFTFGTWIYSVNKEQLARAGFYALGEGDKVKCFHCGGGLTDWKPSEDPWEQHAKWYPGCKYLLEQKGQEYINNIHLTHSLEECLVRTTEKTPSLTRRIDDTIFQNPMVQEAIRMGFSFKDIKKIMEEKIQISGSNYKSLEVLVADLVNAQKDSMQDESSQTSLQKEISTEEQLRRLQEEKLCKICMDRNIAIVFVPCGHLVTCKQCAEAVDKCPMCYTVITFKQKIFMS

Regarding `CN[C@@H](C)C(=O)N[C@H](C(=O)N1C[C@@H](NS(=O)(=O)c2ccccc2)C[C@H]1CN(CCc1ccc(F)cc1)C(=O)c1cn2cccnc2n1)C(C)(C)C` [Compound 59], the Ki is below 25 nM in assay [1], below 25 nM in assay [2] and below 250 nM in assay [4]. Moreover, the EC50 in assay [3] is below 1000 nM.

For the compound `CN[C@@H](C)C(=O)N[C@H](C(=O)N1CCC[C@H]1CN(CCc1ccc(F)cc1)C(=O)c1cn(-c2ccc(F)cc2)cn1)[C@@H](C)OC` [Compound 72], the Ki in assay [1] is below 25 nM; in assay [2], below 25 nM; in assay [4] it was below 250 nM. Further, the EC50 in assay [3] was below 50 nM.

`CN[C@@H](C)C(=O)N[C@H](C(=O)N1CCC[C@H]1CN(CCc1ccc(F)cc1)C(=O)c1cn(C)cn1)C1CCCCC1` [Compound 120]: the results for the Ki in assay [1], in assay [2] and in assay [4] were below 25 nM, below 25 nM and below 250 nM, respectively. Further, the EC50 in assay [3] was below 50 nM.

Regarding `CN[C@@H](C)C(=O)N[C@H](C(=O)N1CCC[C@H]1CN(CCc1ccc(F)cc1)C(=O)c1cn2cccnc2n1)C1CCCCC1` [Compound 20], the Ki in assay [1] was below 25 nM; in assay [2] it was below 25 nM; in assay [4], below 250 nM. Also, the EC50 in assay [3] is below 50 nM.

In the case of `CN[C@@H](C)C(=O)N[C@H](C(=O)N1CCC[C@H]1CN(CCc1ccc(F)cc1)C(=O)c1cn(-c2ccc(F)cc2)cn1)C1CCCCC1` [Compound 104], the figures for the Ki in assay [1], in assay [2] and in assay [4] were below 25 nM, below 25 nM and below 250 nM, respectively. Moreover, the EC50 in assay [3] is below 50 nM.

For `CN[C@@H](C)C(=O)N[C@H](C(=O)N1C[C@@H](Oc2ccc(F)cc2)C[C@H]1CN(CCc1ccc(F)cc1)C(=O)c1cn(C)cn1)C(C)(C)C` [Compound 82], the Ki in assay [1], in assay [2] and in assay [4] was below 25 nM throughout. In addition, the EC50 in assay [3] is below 50 nM.

For the compound `CCN[C@@H](C)C(=O)N[C@H](C(=O)N1CCC[C@H]1CN(CCc1ccccc1)C(=O)c1cn2cccnc2n1)C1CCOCC1` [Compound 4], the Ki in assay [1] is below 250 nM; in assay [2] it was below 250 nM; in assay [4], below 1000 nM. Further, the EC50 in assay [3] is above 1000 nM.

In the case of `CN[C@@H](C)C(=O)N[C@H](C(=O)N1CCC[C@H]1CN(CCc1ccc(F)cc1)C(=O)c1ccn(-c2ccccc2)c1)C(C)(C)C` [Compound 122], the Ki in assay [1] was below 25 nM; in assay [2] it was below 25 nM; in assay [4], below 250 nM. Besides, in assay [3], the EC50 is below 250 nM.

For the compound `CN[C@@H](C)C(=O)N[C@H](C(=O)N1CCC[C@H]1CN(CCc1ccc(F)cc1)C(=O)c1cn2ccccc2n1)C1CCCCC1` [Compound 18], the Ki in assay [1] is below 25 nM; in assay [2], below 25 nM; in assay [4] it was below 250 nM. Besides, in assay [3], the EC50 is below 50 nM.

Turning to `CN[C@@H](C)C(=O)N[C@H](C(=O)N1C[C@@H](Oc2ccccc2)C[C@H]1CN(CCc1ccc(F)cc1)C(=O)c1cn2cccnc2n1)C(C)(C)C` [Compound 124], the Ki in assay [1] was below 25 nM; in assay [2] it was below 25 nM; in assay [4], below 250 nM. The EC50 in assay [3] is below 50 nM.

`CN[C@@H](C)C(=O)N[C@H](C(=O)N1C[C@@H](Oc2ccc(F)cc2)C[C@H]1CN(CCc1ccc(F)cc1)C(=O)c1cn2cc(F)cnc2n1)C(C)(C)C` [Compound 116]: the Ki in assay [1], in assay [2] and in assay [4] was below 25 nM in each case. The EC50 in assay [3] is below 50 nM.

On to `CN[C@@H](C)C(=O)N[C@H](C(=O)N1C[C@@H](Oc2ccc(F)cc2)C[C@H]1CN(CCc1ccc(F)cc1)C(=O)c1cn(C)cn1)[C@@H](C)OC` [Compound 99], for which the Ki in assay [1] is below 25 nM; in assay [2], below 25 nM; in assay [4], below 250 nM. The EC50 in assay [3] was below 50 nM.

As to `CN[C@@H](C)C(=O)N[C@H](C(=O)N1C[C@@H](NC(=O)c2ccccc2)C[C@H]1CN(CCc1ccc(F)cc1)C(=O)c1cn2ccccc2n1)C(C)(C)C` [Compound 69], the values for the Ki in assay [1], in assay [2] and in assay [4] were below 25 nM, below 25 nM and below 250 nM, respectively. The EC50 in assay [3] is below 250 nM.

Take `CN[C@@H](C)C(=O)N[C@H](C(=O)N1CCC[C@H]1CN(CCc1ccc(F)cc1)C(=O)c1cc(-c2ccccc2)[nH]n1)C(C)(C)C` [Compound 88]: the figures for the Ki in assay [1], in assay [2] and in assay [4] were below 25 nM, below 25 nM and below 250 nM, respectively. Besides, in assay [3], the EC50 was below 250 nM.

`CN[C@@H](C)C(=O)N[C@H](C(=O)N1CCC[C@H]1CN(CCc1ccc(F)cc1)C(=O)c1nnc(-c2ccccc2)o1)C(C)(C)C` [Compound 117]: the inhibition constant Ki in assay [1] is below 25 nM; in assay [2], below 25 nM; in assay [4] it was below 1000 nM. For the same compound, in assay [3], the EC50 is below 250 nM.

In the case of `CN[C@@H](C)C(=O)N[C@H](C(=O)N1CCC[C@H]1CN(CCc1ccc(F)cc1)C(=O)c1cn(C)cn1)[C@@H](C)OC` [Compound 73], the Ki in assay [1] is below 25 nM; in assay [2], below 25 nM; in assay [4], below 250 nM. Further, in assay [3], the EC50 is below 250 nM.

As for `CCO[C@H](C)[C@H](NC(=O)[C@H](C)NC)C(=O)N1CCC[C@H]1CN(CCc1ccc(F)cc1)C(=O)c1cn2c(n1)CCC2` [Compound 81], the Ki in assay [1] was below 25 nM; in assay [2] it was below 25 nM; in assay [4], below 250 nM. The EC50 in assay [3] is below 50 nM.

Turning to `CN[C@@H](C)C(=O)N[C@H](C(=O)N1CCC[C@H]1CN(CCc1ccc(F)cc1)C(=O)c1cn(-c2ccccc2)nn1)[C@@H](C)OC` [Compound 77], the Ki in assay [1] was below 25 nM; in assay [2], below 25 nM; in assay [4] it was below 250 nM. The EC50 in assay [3] was below 50 nM.

Consider `CN[C@@H](C)C(=O)N[C@H](C(=O)N1CCC[C@H]1CN(CCc1ccc(F)cc1)C(=O)c1cn2cc(F)cnc2n1)C1CCCCC1` [Compound 103], for which the Ki in assay [1] is below 25 nM; in assay [2], below 25 nM; in assay [4], below 250 nM. Also, the EC50 in assay [3] was below 50 nM.

With `CN[C@@H](C)C(=O)N[C@H](C(=O)N1CCC[C@H]1CN(CCc1ccc(F)cc1)C(=O)c1cn(C2CCOCC2)cn1)C(C)(C)C` [Compound 95], the Ki in assay [1] is below 25 nM; in assay [2] it was below 25 nM; in assay [4], below 250 nM. The EC50 in assay [3] was below 50 nM.

On to `CN[C@@H](C)C(=O)N[C@H](C(=O)N1CCC[C@H]1CN(CCc1ccc(F)cc1)C(=O)c1cc2ccccn2c1)C(C)(C)C` [Compound 68], for which the Ki in assay [1] was below 25 nM; in assay [2], below 25 nM; in assay [4], below 250 nM. Also, in assay [3], the EC50 is below 250 nM.

In the case of `CN[C@@H](C)C(=O)N[C@H](C(=O)N1CCC[C@H]1CN(CCc1ccccc1)C(=O)c1cn2cccnc2n1)C(C)(C)C` [Compound 6], the inhibitory constant (Ki) in assay [1] is below 25 nM; in assay [2], below 25 nM; in assay [4] it was below 250 nM. Besides, the EC50 in assay [3] is below 250 nM.

For the compound `CCO[C@H](C)[C@H](NC(=O)[C@H](C)NC)C(=O)N1CCC[C@H]1CN(CCc1ccc(F)cc1)C(=O)c1cn2ccccc2n1` [Compound 78], the Ki in assay [1] was below 25 nM; in assay [2], below 25 nM; in assay [4], below 250 nM. In addition, in assay [3], the EC50 is below 50 nM.

`CN[C@@H](C)C(=O)N[C@H](C(=O)N1C[C@@H](Oc2ccc(F)cc2)C[C@H]1CN(CCc1ccc(F)cc1)C(=O)c1cn2ccccc2n1)C(C)(C)C` [Compound 84]: the Ki in assay [1], in assay [2] and in assay [4] was below 25 nM throughout. Also, in assay [3], the EC50 was below 50 nM.
